Data reported in US10202375B2, “N-pyridinyl acetamide derivatives as Wnt signalling pathway inhibitors” (Redx Pharma PLC, priority 2014, dated 2019).

Test system: Wnt pathway (L-Wnt cells producing murine Wnt-3a; Leading Light Wnt Reporter Cells)
Experiment: Dual-Cell β-Catenin Reporter Assay
Type: cell-based, Mouse
Conditions: luciferase signal reduced to 50% of DMSO control
Description: Dual-Cell β-Catenin Reporter Assay
Mouse L cells transfected to constitutively produce biologically active murine Wnt-3a, referred to as L-Wnt cells, were purchased from the American Type Culture Collection, ATCC, Manassas, Va. (ATCC). These cells were cultured in DMEM supplemented with 10% FCS (Gibco/Invitrogen, Carlsbad, Calif.), 1% geneticin and 1% sodium pyruvate (Sigma) at 37° C. with 5% CO2. The cells were seeded into 96 well plates and treated with serial dilutions of compound diluted to 0.1% DMSO concentration. After 24 hours, cell supernatants were transferred to a 96 well plate previously seeded with Leading Light® Wnt Reporter Cells, stably transfected with a luciferase gene under control of Wnt pathway response elements. After a further 24 hours, cells are treated with One-glo luciferase assay system (Promega, Madison, Wis.) and the luminescent signal read by envision.

Row | IC50 (Mus musculus, category symbols) | IC50 (category symbols) | Molecule | also measured
1 | 1 to 5 nM |  | Cc1cc(-c2ncnc3c2cnn3CC(=O)Nc2ccc(-c3cnccn3)cn2)ccn1 [ID No. 22, 2-[4-(2-methyl-4-pyridyl)pyrazolo[3,4-d]pyrimidin-1-yl]-N-(5-pyrazin-2-yl-2-pyridyl)acetamide] | 
2 |  | > 5 nM | CC1CN(c2ccnc3c2ccn3CC(=O)Nc2ccc(-c3cnccn3)cn2)CC(C)N1 (stereo not shown) [compound 29, 2-[4-(3,5-dimethylpiperazin-1-yl)pyrrolo[2,3-b]pyridin-1-yl]-N-(5-pyrazin-2-yl-2-pyridyl)acetamide] | 
3 |  | < 1 nM | 2-[6-methyl-4-(2-methyl-4-pyridyl)pyrrolo[2,3-d]pyrimidin-7-yl]-N-(5-pyrazin-2-yl-2-pyridyl)acetamide [ID No. 13] | 
4 | < 1 nM |  | Cc1cc(-c2nc(Cl)nc3c2ccn3CC(=O)Nc2ccc(-c3cnccn3)cn2)ccn1 [compound 12, 2-[2-chloro-4-(2-methyl-4-pyridyl)pyrrolo[2,3-d]pyrimidin-7-yl]-N-(5-pyrazin-2-yl-2-pyridyl)acetamide] | 
5 | 1 to 5 nM |  | Cn1nccc1-c1nccc2c1ccn2CC(=O)Nc1ccc(-c2cnccn2)cn1 [compound 4, 2-[4-(2-methylpyrazol-3-yl)pyrrolo[3,2-c]pyridin-1-yl]-N-(5-pyrazin-2-yl-2-pyridyl)acetamide] | 
6 | > 5 nM |  | Cc1cc(-c2ncnc3c2ccn3CC(=O)Nc2ccc(-c3cnccn3)nc2)ccn1 [compound 16, 2-[4-(2-methyl-4-pyridyl)pyrrolo[2,3-d]pyrimidin-7-yl]-N-(6-pyrazin-2-yl-3-pyridyl)acetamide] | 
7 | < 1 nM |  | Cc1cc(-c2c(F)cnc3c2ccn3CC(=O)Nc2ccc(-c3cnccn3)cn2)ccn1 [ID No. 2, 2-[5-fluoro-4-(2-methyl-4-pyridyl)pyrrolo[2,3-b]pyridin-1-yl]-N-(5-pyrazin-2-yl-2-pyridyl)acetamide] | 
8 |  | 1 to 5 nM | 2-[4-(2-methyl-4-pyridyl)imidazo[4,5-c]pyridin-1-yl]-N-(5-pyrazin-2-yl-2-pyridyl)acetamide [compound 20] | 
9 | > 5 nM |  | Cc1cc(-c2ncnc3c2cc(C)n3CC(=O)Nc2ccc(-c3cnccn3)cn2)ccn1 [compound 13, 2-[6-methyl-4-(2-methyl-4-pyridyl)pyrrolo[2,3-d]pyrimidin-7-yl]-N-(5-pyrazin-2-yl-2-pyridyl)acetamide] | 
10 |  | 1 to 5 nM | Cc1cc(-c2ccnc3c2ccn3CC(=O)Nc2ccc(-c3cnccn3)nc2)ccn1 [compound 17, 2-[4-(2-methyl-4-pyridyl)pyrrolo[2,3-b]pyridin-1-yl]-N-(6-pyrazin-2-yl-3-pyridyl)acetamide] | 
11 |  | > 5 nM | Cc1cc(-c2ncnc3c2ncn3CC(=O)Nc2ccc(-c3cnccn3)cn2)ccn1 [compound 19, 2-[6-(2-methyl-4-pyridyl)purin-9-yl]-N-(5-pyrazin-2-yl-2-pyridyl)acetamide] | 
12 |  | > 5 nM | Cn1nccc1-c1ccnc2c1cnn2CC(=O)Nc1ccc(-c2cnccn2)cn1 [compound 6, 2-[4-(2-methylpyrazol-3-yl)pyrazolo[3,4-b]pyridin-1-yl]-N-(5-pyrazin-2-yl-2-pyridyl)acetamide] | 
13 | < 1 nM |  | Cc1cc(-c2nccc3c2ccn3CC(=O)Nc2ccc(-c3cnccn3)cn2)ccn1 [compound 23, 2-[4-(2-methyl-4-pyridyl)pyrrolo[3,2-c]pyridin-1-yl]-N-(5-pyrazin-2-yl-2-pyridyl)acetamide] | IC50 (Mus musculus, specific values): 0.43 nM
14 | < 1 nM |  | Cc1cc(-c2nc(N)nc3c2ccn3CC(=O)Nc2ccc(-c3cnccn3)cn2)ccn1 [compound 8, 2-[2-amino-4-(2-methyl-4-pyridyl)pyrrolo[2,3-d]pyrimidin-7-yl]-N-(5-pyrazin-2-yl-2-pyridyl)acetamide] | 
15 | < 1 nM |  | Cn1nccc1-c1ccnc2c1ccn2CC(=O)Nc1ccc(-c2cnccn2)cn1 [compound 31, 2-[4-(2-methylpyrazol-3-yl)pyrrolo[2,3-b]pyridin-1-yl]-N-(5-pyrazin-2-yl-2-pyridyl)acetamide] | IC50 (Mus musculus, specific values): 0.89 nM
16 | < 1 nM |  | O=C(Cn1ccc2c(-c3ccnc(C(F)(F)F)c3)ncnc21)Nc1ccc(-c2cnccn2)cn1 [compound 21, N-(5-pyrazin-2-yl-2-pyridyl)-2-[4-[2-(trifluoromethyl)-4-pyridyl]pyrrolo[2,3-d]pyrimidin-7-yl]acetamide] | 
17 |  | 1 to 5 nM | 2-[4-(2-methyl-4-pyridyl)pyrazolo[3,4-b]pyridin-1-yl]-N-(6-pyrazin-2-yl-3-pyridyl)acetamide [compound 15] | 
18 | 1 to 5 nM |  | Cc1cc(-c2ncnc3c2cnn3CC(=O)Nc2ccc(-c3cnccn3)nc2)ccn1 [compound 14, 2-[4-(2-methyl-4-pyridyl)pyrazolo[3,4-d]pyrimidin-1-yl]-N-(6-pyrazin-2-yl-3-pyridyl)acetamide] | 
19 | < 1 nM |  | Cc1cc(-c2ccnc3c2ccn3CC(=O)Nc2ccc(-c3cnccn3)nc2)ccn1 [ID No. 17, 2-[4-(2-methyl-4-pyridyl)pyrrolo[2,3-b]pyridin-1-yl]-N-(6-pyrazin-2-yl-3-pyridyl)acetamide] | 
20 |  | < 1 nM | Cc1cc(-c2ncnc3c2cnn3CC(=O)Nc2ccc(-c3cnccn3)cn2)ccn1 [compound 22, 2-[4-(2-methyl-4-pyridyl)pyrazolo[3,4-d]pyrimidin-1-yl]-N-(5-pyrazin-2-yl-2-pyridyl)acetamide] | 
21 |  | < 1 nM | 2-[5-methyl-4-(2-methyl-4-pyridyl)pyrrolo[2,3-b]pyridin-1-yl]-N-(5-pyrazin-2-yl-2-pyridyl)acetamide [ID No. 1] | IC50 (specific values): 0.32 nM
22 |  | > 5 nM | CN1CCN(c2ccnc3c2ccn3CC(=O)Nc2ccc(-c3cnccn3)cn2)CC1 [compound 28, 2-[4-(4-methylpiperazin-1-yl)pyrrolo[2,3-b]pyridin-1-yl]-N-(5-pyrazin-2-yl-2-pyridyl)acetamide] | 
23 | < 1 nM |  | Cc1cc(-c2ccnc3c2cnn3CC(=O)Nc2ccc(-c3cnccn3)cn2)ccn1 [compound 25, 2-[4-(2-methyl-4-pyridyl)pyrazolo[3,4-b]pyridin-1-yl]-N-(5-pyrazin-2-yl-2-pyridyl)acetamide] | 
24 | < 1 nM |  | Cc1cc(-c2cncc3c2ccn3CC(=O)Nc2ccc(-c3cnccn3)cn2)ccn1 [compound 24, 2-[4-(2-methyl-4-pyridyl)pyrrolo[2,3-c]pyridin-1-yl]-N-(5-pyrazin-2-yl-2-pyridyl)acetamide] | 
25 | 1 to 5 nM |  | Cn1nccc1-c1ncnc2c1ccn2CC(=O)Nc1ccc(-c2cnccn2)cn1 [compound 18, 2-[4-(2-methylpyrazol-3-yl)pyrrolo[2,3-d]pyrimidin-7-yl]-N-(5-pyrazin-2-yl-2-pyridyl)acetamide] | 
